# From paper PMC4459817, “Vasculotide reduces endothelial permeability and tumor cell extravasation in the absence of binding to or agonistic activation of Tie2” (EMBO Molecular Medicine, 2015)
# “Also recorded” adds a separate entry of the source.
# What was measured:
# [1] = tested on: human microvascular ECs of dermal blood vessel origin (HMVEC-DBl); assay: modified Boyden chamber, thrombin-stimulated FITC-dextran permeability, HMVEC-DBl; type: cell-based; settings: HMVEC-DBl; structural control alone; Fig1D
# Description: ECs were first treated with Vasculotide (VT), PBS (vehicle/negative control), Ang1 (positive control), PEG-Cys (polyethylene glycol backbone), T7c (non-PEGylated CHHHRHSF peptides), or VT in the presence of 100-fold molar excess of T7c. The concentrations used, 10–20 ng/mL VT and 200–400 ng/mL Ang1, are estimated molar equivalents (0.71–1.43 nM). Thirty minutes later, ECs were stimulated with thrombin, 0.1% BSA (vehicle/negative control), or EDTA (positive control). Another 30mins later, the amount of FITC-dextran diffusion into the lower chambers (A, D) provides a measure of endothelial permeability. CMTPX-labeled tumor cells (TCs) were then dispensed into inserts, and the amount of TC fluorescence emitting from the underside of insert membranes after 20 h (B–C) or 28 h (E) reflects the efficiency of trans-endothelial TC migration. Representative fluorescent images (10×) of membrane undersides are shown in (C), where DAPI-stained nuclei of ECs/TCs are shown in blue, ‘extravasated’ CMTPX-labeled TCs are shown in red, and the # of CMTPX^+ pixels are shown numerically in red. Means ± SEM are shown (A,B,D,E). Three experiments (twice with HMVEC-LBl and once with HMVEC-DBl) were run with n = 3–5 inserts (independent biological replicates) per group and analyzed by two-sampled unpaired t-tests. […]
# Endothelial cells (ECs) were grown on cell culture inserts with uncoated 8-μm-pore PET filter membranes to 100% confluency. […] After 30 min of thrombin stimulation or 4–6 h of TC-CM stimulation, FITC fluorescence (ex/em = 490/520 nm) was measured from a 50 μl sample of the lower chamber media. […] CMPTX fluorescence from migrated TCs was then quantified from 10× microscopy images using a MATLAB (MathWorks, Natick, MA, USA) script; five images (technical replicates) were analyzed per insert. […]
# mouse Tie2-Fc (mTie2-Fc) = target: T1, mouse Tie2-Fc (mTie2-Fc) (Mus musculus, UniProt Q02858); assay: SPR binding to mouse Tie2-Fc; settings: mouse Tie2-Fc (low- and high-density), 37°C, pH 7.4, Supplementary Fig S3
# T1 construct: Purified human or mouse Tie2-Fc (i.e., Fc-conjugated extracellular domains of Tie2); purchased R&D Systems 762-T2-100
# Description: To better understand the difficulties we had in observing Tie2 activation by VT, we sought to characterize the binding affinity and kinetics of VT to Tie2. Purified human or mouse Tie2-Fc (i.e., Fc-conjugated extracellular domains of Tie2) were first coupled to protein A sepharose beads for pull-down experiments (Fig9A and B) or immobilized on a Biacore CM5 sensor chip for surface plasmon resonance (SPR) experiments (Fig9C and Supplementary Fig S3). […]
# 9. Tie2 Receptor-Binding Assays
# Vasculotide (VT) was manufactured by Bachem UK Ltd. T7c (CHHHRHSF) was synthesized by Genscript (Piscataway, NJ, USA). PEG-Cys consists of a single cysteine reacted to each of the 4 arms of PEG-maleimide (Sunbright PTE-100MA, NOF Corporation, Tokyo, Japan). BowAng1 (Ang1-Fd-Fc-Fd) was made and provided by Regeneron Pharmaceuticals, Inc. (Tarrytown, NY, USA). COMP-Ang1 was purified in the Kerbel lab from serum-free culture media conditioned by an engineered CHO cell line provided by Dr. Gou Young Koh (KAIST), according to published protocols (Hwang et al, 2008).
# Recombinant human Angiopoietin-1 (rhAng1) and Vascular Endothelial Growth Factor ( rhVEGF) were […]
# purchased from R&D Systems. […]
# (structural/molecular weight control for VT), and 40 μL of supernatant (7% of residual/unbound ligand) – were similarly boiled in SDS sample buffer. […]
# Binding analysis were performed by exposure of immobilized mTie2-Fc to the analytes diluted in HBS-EP (0.01M HEPES pH 7.4, 0.15M NaCl, 3mM EDTA, 0.005% v/v Tween-20), which was supplemented with 1mg/mL carboxymethyl dextran (NSB reducer, GE Healthcare) to reduce non-specific binding to the sensor chip. […] To quantitatively determine the kinetic properties of the interaction (KD, kd, ka) and avoid mass transport limitations, mTie2-Fc and hTie2-Fc were immobilized at low density (1,000-1,200RU) onto separate flow cells of the CM5 chip using amine coupling chemistry. […] All data were analysed using BIA Evaluation Software 2.0 (GE Healthcare) to calculate kd, ka and KD using the 1:1 ligand binding model. […]
# T1 sequence (Q02858 23-746 limits assumed): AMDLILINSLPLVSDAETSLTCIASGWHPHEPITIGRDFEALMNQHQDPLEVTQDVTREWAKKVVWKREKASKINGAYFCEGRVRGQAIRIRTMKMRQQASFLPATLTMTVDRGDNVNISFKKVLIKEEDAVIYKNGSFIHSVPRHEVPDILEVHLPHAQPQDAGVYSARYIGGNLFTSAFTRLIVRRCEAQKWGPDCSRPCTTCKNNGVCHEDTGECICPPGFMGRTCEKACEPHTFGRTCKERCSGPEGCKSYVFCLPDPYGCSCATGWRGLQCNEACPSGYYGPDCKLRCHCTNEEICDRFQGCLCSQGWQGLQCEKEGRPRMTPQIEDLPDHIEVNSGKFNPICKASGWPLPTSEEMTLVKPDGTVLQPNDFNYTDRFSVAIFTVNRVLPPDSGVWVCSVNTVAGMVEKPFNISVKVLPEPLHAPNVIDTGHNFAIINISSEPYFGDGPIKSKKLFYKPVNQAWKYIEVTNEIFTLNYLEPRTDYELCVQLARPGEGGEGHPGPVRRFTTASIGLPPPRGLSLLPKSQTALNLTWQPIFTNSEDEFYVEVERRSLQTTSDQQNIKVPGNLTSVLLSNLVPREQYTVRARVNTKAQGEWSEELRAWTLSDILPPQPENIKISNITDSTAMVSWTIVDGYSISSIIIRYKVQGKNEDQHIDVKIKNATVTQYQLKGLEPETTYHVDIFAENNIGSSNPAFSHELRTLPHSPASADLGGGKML
sequence,measurement,setting,value
"CHHHRHSF [T7c, non-PEGylated CHHHRHSF peptides, reference compound]","trans-endothelial permeability, structural components of VT",[1],partial effects
same,binding to Tie2-Fc,mouse Tie2-Fc (mTie2-Fc),no binding to Tie2-Fc was detectable; also recorded: undetectable binding
